Source: patent US6517808B1, “Methods for boron delivery to mammalian tissue” (The Regents of the University of California, priority 1993, dated 2003)

How the values were obtained:
EMT6 tumors = assay: murine biodistribution study (boron concentration in tissues by ICP-AES); format: in vivo, BALB/c mice
Method: The concentration of boron can be determined by inductively coupled plasma atomic emission spectroscopy (ICP-AES).
All murine biodistribution studies utilized female BALB/c mice (16-20 g), with EMT6 tumors implanted in the right flank 7-10 days prior to the experiment. […] Injections of liposome emulsions (200 μl) were made in the tail vein. Prior to sacrifice, each mouse was anesthetized with halothane and bled into heparinized syringes via cardiac puncture. The blood was then placed into tared cryogenic tubes. While under anesthesia, the mice were euthanized via cervical dislocation. The tumor, liver, and spleen were dissected and also placed in tared cryogenic tubes. Blood and tissues were stored frozen until analyzed.
Biodistributions are plotted as boron concentration in micrograms of boron per gram of tissue on the Y axis and time in hours on the X axis. In general, four tissues are analyzed: tumor and blood because of their therapeutic interest, and liver and spleen because these tissues are known to competitively bind liposomes in vivo.

[1] = chemical stability of borane anions towards water / moisture; format: physicochemical
Excerpt: The cleanest reaction is observed employing [Ph3PMe][B10H10] in CH2Cl2, but the reaction can be used with several salts of [B10H10]^2− including preferably cesium. tetramethylammonium and triethylammoniuim and with other solvents such as acetonitrile and tetrahydrofuran. […] The substituted boron is indicated by a high field resonance at −43.8 ppm (relative to BF3. Et2O) which is a singlet in the proton coupled spectrum. [Ph3PMe][2-B10H9CO] may be isolated a a light tan solid in 85% yield, or the reaction mixture may be used directly in further reactions. […] [Ph3PMe]2[2-B10H9CO2H] has been confirmed by crystallographic analysis.
A very useful transformation of [2-B10H9CO]^− occurs from its reaction with azide ion in acetonitrile. The carbonyl undergoes a Curtius-type rearrangement to form the isocyanate [2-B10H9NCO]^2−, indicated by an infrared absorption at 2304 cm^−1. […] The [2-B10H9CO]^− ion therefore offers a high-yield route to the production of many boron-rich species for boron neutron capture therapy. Detailed protocols of preparing certain of these species is as follows: […]

**Q.** For Na2B10H10 [reference compound], which “tumor uptake begins at (initial tumor boron concentration)” value (EMT6 tumors; FIG. 4, BALB/c mice bearing EMT6 tumors, tail vein injection) is on record?
**A.** The value was 10 µg/g.

**Q.** With Na3B20H17NH3 [free Na3B20H17NH3] as the substance, how does the “initial distribution (accumulation) in the tumor” value (EMT6 tumors; FIG. 10, free, not liposome-encapsulated, injected in buffer) read?
**A.** The value was “about 8 ppm”.

**Q.** With [2-B10H9CO]^− as the substance, how does the sensitivity to moisture ([1]; in the solid state or in solution) read?
**A.** Its sensitivity to moisture is “relatively insensitive to moisture”.

**Q.** For [2-B10H9NCO]^2−, which “stability in acidic media” value ([1]; acidic media) is on record?
**A.** Its value is “rapidly hydrolyzed”.

**Q.** And the “stability in neutral aqueous solution” value ([1]; neutral aqueous solution)?
**A.** Its value is “stable”.
